From publication PMC8119466, “A screen of FDA-approved drugs identifies inhibitors of protein tyrosine phosphatase 4A3 (PTP4A3 or PRL-3)” (Scientific Reports, 2021)
Counter-ions that a name gives are not always drawn.

How the values were obtained:
Type in all cases: biochemical
Conditions in all cases: FDA-approved drug screen
recombinant PRL-2 = molecular target: T1, recombinant PRL-2 (Homo sapiens, UniProt Q12974); experiment: In vitro phosphatase assay (DiFMUP hydrolysis), PRL-2;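 also: PRL-2 activity read as DiFMUP hydrolysis after 20 min at room temperature with drug, enzyme first pre-reduced at 4 °C for 20 min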
T1 construct: 6xHis (N, cleaved yes); made in house; host or cells: E. coli One Shot BL21 Star
T1 sequence (Q12974 1-167): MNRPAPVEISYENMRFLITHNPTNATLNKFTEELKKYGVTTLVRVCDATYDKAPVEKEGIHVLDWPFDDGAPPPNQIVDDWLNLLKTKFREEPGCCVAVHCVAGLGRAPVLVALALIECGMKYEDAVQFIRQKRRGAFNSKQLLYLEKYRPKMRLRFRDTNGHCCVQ
Method: Briefly, protein was diluted in reaction buffer and allowed to incubate at 4 °C for 20 min to allow for full reduction of the active site. DiFMUP, drug, and protein were added, and plates were incubated for 20 min at room temperature. Fluorescence intensities were measured on a Cytation 5 plate reader (Biotek) at an EX:360 nm and EM:460 nm. […] Inhibition selectivity for PRLs over a panel of other phosphatases was determined using PhosphataseProfiler (Eurofins, Cat # PP260).

recombinant PRL-3 = molecular target: T2, recombinant PRL-3 (Homo sapiens, UniProt O75365); experiment: In vitro phosphatase assay (DiFMUP hydrolysis), PRL-3; also: test concentration or dose not given here
T2 construct: 6xHis (N, cleaved yes); made in house; host or cells: E. coli One Shot BL21 Star
T2 sequence (O75365 whole entry): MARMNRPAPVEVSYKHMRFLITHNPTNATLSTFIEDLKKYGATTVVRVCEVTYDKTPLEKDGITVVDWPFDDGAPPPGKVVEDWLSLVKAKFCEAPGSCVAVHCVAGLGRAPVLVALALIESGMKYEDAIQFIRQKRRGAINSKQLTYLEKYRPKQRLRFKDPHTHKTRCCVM

recombinant PRL-1 = molecular target: T3, recombinant PRL-1 (Homo sapiens, UniProt Q93096); experiment: In vitro phosphatase assay (DiFMUP hydrolysis), PRL-1; also: test concentration or dose not given here
T3 construct: 6xHis (N, cleaved yes); made in house; host or cells: E. coli One Shot BL21 Star
T3 sequence (Q93096 1-173): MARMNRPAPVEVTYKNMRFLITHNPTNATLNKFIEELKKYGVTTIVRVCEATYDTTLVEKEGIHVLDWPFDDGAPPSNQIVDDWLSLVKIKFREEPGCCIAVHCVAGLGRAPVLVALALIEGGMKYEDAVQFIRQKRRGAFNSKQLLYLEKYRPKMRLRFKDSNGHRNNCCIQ

% Phosphatase Activity (compared to DMSO) PRL-2 (recombinant PRL-2; activity compared to DMSO) [%] | % Phosphatase Activity (compared to DMSO) PRL-3 (recombinant PRL-3; activity compared to DMSO) [%] | % Phosphatase Activity (compared to DMSO) PRL-1 (recombinant PRL-1; activity compared to DMSO) [%] | Molecule | % Phosphatase Activity (compared to DMSO) PRL-2 (recombinant PRL-2; compared to DMSO) [%] | % Phosphatase Activity (compared to DMSO) PRL-3 (recombinant PRL-3; compared to DMSO) [%] | % Phosphatase Activity (compared to DMSO) PRL-1 (recombinant PRL-1; compared to DMSO) [%]
– | – | – | CC(C(=O)O)c1ccc(-c2ccccc2)c(F)c1 (stereo not drawn) [Flurbiprofen] | 89 | 73 | 97
– | – | – | NC(=O)CN1CC(O)CC1=O (stereo not drawn) [Oxiracetam] | 122 | 71 | 94
– | – | – | Cc1c(NC(=O)c2cccnc2)c(=O)n(-c2ccccc2)n1C [Nifenazone] | 105 | 92 | 91
– | – | – | CC(C)OC(=O)C(C)(C)Oc1ccc(C(=O)c2ccc(Cl)cc2)cc1 [Fenofibrate] | 89 | 101 | 88
– | – | – | N[C@@H](Cc1cc(I)c(Oc2cc(I)c(O)c(I)c2)c(I)c1)C(=O)O [L-Thyroxine] | 92 | 81 | 79
– | – | – | Nc1nc2c(ncn2CCC(CO)CO)c(=O)[nH]1 [Penciclovir] | 95 | 74 | 98
– | – | – | CC(C)c1c(C(=O)Nc2ccccc2)c(-c2ccccc2)c(-c2ccc(F)cc2)n1CC[C@@H](O)C[C@@H](O)CC(=O)O [Atorvastatin Calcium] | 87 | 74 | 100
– | – | – | NC12CC3CC(CC(C3)C1)C2 [Amantadine HCl] | 127 | 88 | 117
– | – | – | C=C(c1ccc(C(=O)O)cc1)c1cc2c(cc1C)C(C)(C)CCC2(C)C [Bexarotene] | 89 | 58 | 81
99 | 119 | 99 | c1ccc2[nH]c(-c3cscn3)nc2c1 [Thiabendazole] | – | – | –
– | – | – | Cc1ccc(Cl)c(Nc2ccccc2C(=O)O)c1Cl [Meclofenamate Sodium] | 104 | 81 | 99
– | – | – | O=C(CCCN1CCC(O)(c2ccc(Cl)cc2)CC1)c1ccc(F)cc1 [Haloperidol] | 100 | 93 | 93
– | – | – | CCN(CCO)CCCOc1ccc2c(Nc3cc(CC(=O)Nc4cccc(F)c4)[nH]n3)ncnc2c1 [Barasertib (AZD1152-HQPA)] | 95 | 76 | 91
– | – | – | CCN(CC)C(=O)N1CCN(C)CC1.O=C(O)CC(O)(CC(=O)O)C(=O)O [Diethylcarbamazine (citrate)] | 101 | 90 | 92
– | – | – | CO/N=C(\C(=O)N[C@@H]1C(=O)N2C(C(=O)OCOC(=O)C(C)(C)C)=C(/C=C\c3scnc3C)CS[C@H]12)c1csc(N)n1 [Cefditoren Pivoxil] | 94 | 113 | 88
– | – | – | CCc1ccc(CCOc2ccc(CC3SC(=O)NC3=O)cc2)nc1 (stereo not drawn) [Pioglitazone HCl] | 100 | 86 | 81
– | – | – | CCc1c(Cl)c(O)c(Cl)c(O)c1C(=O)O[C@H]1[C@H](O)[C@H](OC)[C@H](OC/C2=C\C=C\C[C@H](O)/C(C)=C/[C@H](CC)[C@@H](O[C@@H]3OC(C)(C)[C@@H](OC(=O)C(C)C)[C@H](O)[C@@H]3O)/C(C)=C/C(C)=C/C[C@@H]([C@@H](C)O)OC2=O)O[C@@H]1C [Fidaxomicin] | 63 | 62 | 85
– | – | – | CCN(CC)CCOCCOC(=O)C(CC)(CC)c1ccccc1.O=C(O)CC(O)(CC(=O)O)C(=O)O [Oxeladin Citrate] | 88 | 89 | 90

% Phosphatase Activity (compared to DMSO) PRL-2 (recombinant PRL-2; activity compared to DMSO) [%] | % Phosphatase Activity (compared to DMSO) PRL-3 (recombinant PRL-3; activity compared to DMSO) [%] | % Phosphatase Activity (compared to DMSO) PRL-1 (recombinant PRL-1; activity compared to DMSO) [%] | Molecule | % Phosphatase Activity (compared to DMSO) PRL-2 (recombinant PRL-2; compared to DMSO) [%] | % Phosphatase Activity (compared to DMSO) PRL-3 (recombinant PRL-3; compared to DMSO) [%] | % Phosphatase Activity (compared to DMSO) PRL-1 (recombinant PRL-1; compared to DMSO) [%]
– | – | – | CS(=O)(=O)OCCCCOS(C)(=O)=O [Busulfan] | 95 | 79 | 103
– | – | – | CC1=C(/C=C/C(C)=C/C=C/C(C)=C\C(=O)O)C(C)(C)CCC1 [Isotretinoin] | 71 | 57 | 72
– | – | – | [O-][n+]1cccc(CO)c1 [Mepiroxol] | 112 | 87 | 100
66 | 48 | 68 | COc1cc(C(=O)NS(=O)(=O)c2ccccc2C)ccc1Cc1cn(C)c2ccc(NC(=O)OC3CCCC3)cc12 [Zafirlukast] | – | – | –
– | – | – | CCCNCC(O)COc1ccccc1C(=O)CCc1ccccc1 (stereo not drawn) [Propafenone HCl] | 114 | 79 | 98
– | – | – | COCCOC(=O)C1=C(C)NC(C)=C(C(=O)OC/C=C/c2ccccc2)C1c1cccc([N+](=O)[O-])c1 (stereo not drawn) [Cilnidipine] | 95 | 68 | 95
79 | 77 | 96 | C[C@H](CCC(=O)O)[C@H]1CC[C@H]2[C@@H]3[C@@H](O)C[C@@H]4C[C@H](O)CC[C@]4(C)[C@H]3CC[C@]12C [Ursodiol] | – | – | –
– | – | – | C[C@H]1COc2c(N3CCN(C)CC3)c(F)cc3c(=O)c(C(=O)O)cn1c23 [Levofloxacin hydrate] | 306 | 316 | 322
– | – | – | CCOC(=O)c1ccc(N)cc1.Cl [Benzocaine hydrochloride] | 102 | 84 | 100
– | – | – | O=C(O)c1nn(Cc2ccc(Cl)cc2Cl)c2ccccc12 [Lonidamine] | 106 | 85 | 102
– | – | – | CN1CCN(c2ccc(C(=O)Nc3n[nH]c4ccc(Cc5cc(F)cc(F)c5)cc34)c(NC3CCOCC3)c2)CC1 [Entrectinib (RXDX-101)] | 282 | 180 | 344
115 | 101 | 86 | CCCCC(=O)N(Cc1ccc(-c2ccccc2-c2nnn[nH]2)cc1)[C@H](C(=O)O)C(C)C [Valsartan] | – | – | –
– | – | – | C#C[C@]1(O)C=C[C@H]2[C@@H]3CCC4=CC(=O)CC[C@@H]4[C@H]3CC[C@@]21CC [Gestodene] | 102 | 77 | 91
– | – | – | CC(=O)OCC(=O)[C@@]12N=C(C)O[C@@H]1C[C@H]1[C@@H]3CCC4=CC(=O)C=C[C@]4(C)[C@H]3[C@@H](O)C[C@@]12C [Deflazacort] | 102 | 103 | 90
– | – | – | CN(C)CCC(c1ccc(Br)cc1)c1ccccn1.O=C(O)/C=C\C(=O)O (stereo not drawn) [Brompheniramine hydrogen maleate] | 107 | 78 | 108
– | – | – | O=C1O[C@H](CO)[C@@H](O)[C@H](O)[C@H]1O [Gluconolactone] | 98 | 82 | 103
– | – | – | C[C@@H]1O[C@@H]1P(=O)(O)O.NC(CO)(CO)CO [Fosfomycin Tromethamine] | 101 | 92 | 100
– | – | – | COc1ccc2cc(CCC(C)=O)ccc2c1 [Nabumetone] | 102 | 68 | 91

Molecule | % Phosphatase Activity (compared to DMSO) PRL-2 (recombinant PRL-2; activity compared to DMSO) [%] | % Phosphatase Activity (compared to DMSO) PRL-3 (recombinant PRL-3; activity compared to DMSO) [%] | % Phosphatase Activity (compared to DMSO) PRL-1 (recombinant PRL-1; activity compared to DMSO) [%] | % Phosphatase Activity (compared to DMSO) PRL-2 (recombinant PRL-2; compared to DMSO) [%] | % Phosphatase Activity (compared to DMSO) PRL-3 (recombinant PRL-3; compared to DMSO) [%] | % Phosphatase Activity (compared to DMSO) PRL-1 (recombinant PRL-1; compared to DMSO) [%]
CCS(=O)(=O)CCn1c([N+](=O)[O-])cnc1C [Tinidazole] | 113 | 84 | 107 | – | – | –
Spiramycin | 90 | 68 | 86 | – | – | –
Cc1ccc(S(=O)(=O)NC(=O)NN2CCCCCC2)cc1 [Tolazamide] | 84 | 82 | 81 | – | – | –
